Results published in US20050069532A1, “Treatment of bacterial infection with elastase” (priority 2002, published 2005).
Residues, ends and D or L forms follow the SMILES beside them. *: point of attachment. MeOSuc = COC(=O)CCC(=O)*; CH2Cl = ClC*

Tests used:
[1] = tested on: neutrophils; settings: cited from earlier work
[2] = tested on: neutrophils; test: Cytotoxicity of inhibitor by lactate dehydrogenase (LDH) release
[3] = tested on: human neutrophils infected with Shigella; settings: 20 μM, LDH release after 2 h incubation
[4] = tested on: human neutrophils infected with Shigella; type: cell-based; settings: 20 μM
[5] = tested on: human neutrophils infected with wild type Shigella; type: cell-based; settings: 20 μM, 10 bacteria/neutrophil
[6] = target: T1, Neutrophil elastase (Homo sapiens, UniProt P08246); test: Neutrophil elastase enzymatic assay in hNEGP (N-methoxysuccinyl-Ala-Ala-Pro-Val-p-nitroanilide substrate); settings: hNEGP pretreated with inhibitor (PMSF 1 mM, rm temp 20 min)
T1 sequence (P08246 30-267): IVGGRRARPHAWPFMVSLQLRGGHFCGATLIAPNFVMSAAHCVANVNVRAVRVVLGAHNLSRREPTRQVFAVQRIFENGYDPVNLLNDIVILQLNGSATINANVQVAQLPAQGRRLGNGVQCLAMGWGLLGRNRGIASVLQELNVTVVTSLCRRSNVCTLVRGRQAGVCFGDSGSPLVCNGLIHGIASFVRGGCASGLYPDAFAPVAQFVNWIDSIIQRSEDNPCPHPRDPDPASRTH
Experimental: Neutrophil elastase activity of intact neutrophils was determined as previously described (Huang et al., “Effect of Trifluoromethyl Ketone-Based Elastase Inhibitors on Neutrophil Function in Vitro,” J Leukoc Biol 64:322-330 (1998), which is hereby incorporated by reference).

[7] = target: neutrophil elastase in hNEGP (Homo sapiens, UniProt P08246); type: biochemical
[8] = tested on: Shigella virulence proteins (IpaA, IpaB, IpaC, IcsA); type: biochemical, Shigella flexneri
[9] = tested on: OmpA of nonpathogenic Escherichia coli; settings: 4 h with 106 bacteria; cited from earlier work
OmpA of nonpathogenic Escherichia coli, sequence (P0A910 22-346): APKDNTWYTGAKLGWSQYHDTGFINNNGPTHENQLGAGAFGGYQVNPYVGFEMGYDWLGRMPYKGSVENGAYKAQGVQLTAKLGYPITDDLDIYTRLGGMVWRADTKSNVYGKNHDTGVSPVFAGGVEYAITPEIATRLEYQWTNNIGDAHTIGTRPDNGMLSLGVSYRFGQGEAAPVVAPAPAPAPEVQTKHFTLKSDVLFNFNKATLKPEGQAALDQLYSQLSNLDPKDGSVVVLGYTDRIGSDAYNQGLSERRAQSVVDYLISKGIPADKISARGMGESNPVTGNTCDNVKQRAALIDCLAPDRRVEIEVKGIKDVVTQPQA

[10] = tested on: Secreted proteins from wild type Salmonella typhimurium (strain SL1344); type: biochemical
[11] = tested on: MxiA and MxiD; type: biochemical, Shigella
[12] = tested on: InvG
InvG, sequence (P35672 25-562): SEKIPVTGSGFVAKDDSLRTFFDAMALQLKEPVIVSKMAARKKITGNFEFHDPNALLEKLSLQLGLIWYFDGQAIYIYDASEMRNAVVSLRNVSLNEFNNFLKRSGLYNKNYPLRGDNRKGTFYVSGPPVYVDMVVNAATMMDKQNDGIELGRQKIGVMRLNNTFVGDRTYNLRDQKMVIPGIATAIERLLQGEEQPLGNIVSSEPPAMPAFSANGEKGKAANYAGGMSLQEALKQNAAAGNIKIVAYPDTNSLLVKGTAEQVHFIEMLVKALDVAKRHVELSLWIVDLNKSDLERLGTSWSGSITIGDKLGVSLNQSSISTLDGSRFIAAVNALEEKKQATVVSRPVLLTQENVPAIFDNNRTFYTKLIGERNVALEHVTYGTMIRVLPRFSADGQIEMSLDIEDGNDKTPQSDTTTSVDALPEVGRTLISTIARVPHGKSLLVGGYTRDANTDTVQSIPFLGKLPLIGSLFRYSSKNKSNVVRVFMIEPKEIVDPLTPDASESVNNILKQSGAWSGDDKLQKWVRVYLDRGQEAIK

[13] = tested on: Secreted proteins from Shigella; type: biochemical
[14] = tested on: wild-type Shigella flexneri (M90T); type: cell-based
[15] = tested on: neutrophil elastase; settings: cited from earlier work
[16] = tested on: Proteinase 3; settings: cited from earlier work
[17] = tested on: Cathepsin G; settings: cited from earlier work

CC(C)C(NC(=O)[C@@H]1CCCN1C(=O)[C@@H](NC(=O)c1ccc(C(=O)NS(=O)(=O)c2ccc(Br)cc2)cc1)C(C)C)C(=O)C(F)(F)F (stereo partly drawn) [ICI-200355]
effect on ingestion or killing of non-virulent bacteria [1]: does not affect
cytotoxicity (LDH release) [2]: not cytotoxic
neutrophil cell death with noninvasive Shigella control strains after inhibitor pretreatment [3]: no cell death
location of non-invasive Shigella strain in neutrophils incubated with inhibitor [4]: remained in the phagosome
location of wild type Shigella in neutrophils pre-incubated with inhibitor ([4]; fixed 30 min post-infection): free in the cytoplasm
Shigella survival in inhibitor-treated neutrophils versus controls [5]: survived indeed better

COC(=O)CCC(=O)N[C@@H](C)C(=O)N[C@@H](C)C(=O)N1CCC[C@H]1C(=O)N[C@H](C(=O)CCl)C(C)C [MeOSuc-AAPV-cmk, MeOSucAlaAlaProVal-chloromethyl ketone] (MeOSuc-AAPV-CH2Cl)
inhibition of neutrophil elastase activity in hNEGP [6]: completely inhibited
blocking of hNEGP degradation of IpaA, B, C and IcsA [7]: effectively blocked degradation

O=S(=O)(F)Cc1ccccc1 [PMSF, phenylmethylsulfonyl fluoride]
inhibition of neutrophil elastase activity in hNEGP [6]: completely inhibited
blocking of hNEGP degradation of IpaA, B, C and IcsA [7]: blocked the degradation

Cathepsin G
degradation of Shigella effectors [8]: did not degrade

neutrophil elastase
neutrophil elastase concentration that partially digests OmpA [9]: 2 µM
degradation of FliB and FliC [10]: not degraded
degradation of SipA, B, C and HAPs [10]: degraded
degradation of MxiA and MxiD [11]: not degraded
degradation of OmpA in Shigella or E. coli [8]: not degraded
neutrophil elastase concentration at which IcsA was degraded [8]: 1.2 nM
neutrophil elastase concentration that cleaved Shigella virulence proteins significantly [8]: ≥ 1.2 nM
degradation of InvG [12]: not degraded
cleavage of proteins not associated with virulence (SepA and OspF) [13]: remained intact
cleavage of virulence factors (e.g. VirA and the Ipas) [13]: cleaved
neutrophil elastase concentration affecting bacterial viability [14]: > 2,000 nM

B1: SLPI: physiologic inhibitor, human Secretory Leukocyte Protease Inhibitor (protein, UniProt P03973 26-132, looked up)
Antileukoproteinase: SGKSFKAGVCPPKKSAQCLRYKKPECQSDWQCPGKKRCCPDTCGIKCLDPVDTPNPTRRKPGKCPVTYGQCLMLNPPNFCEMDGQCKRDLKCCMGMCGKSCVSPVKA
inhibition of neutrophil elastase activity in hNEGP [6]: completely inhibited
block of neutrophil elastase [15]: blocks
blocking of hNEGP degradation of IpaA, B, C and IcsA [7]: effectively blocked degradation
block of Proteinase 3 [16]: not
block of Cathepsin G [17]: blocks
